Reference: ChEMBL document CHEMBL3259815, “Regioselective synthesis of polycyclic aza-oxa and aza-oxa-thia heteroarenes as Colo-205 and HepG2 carcinoma cells growth inhibitors” (Eur J Med Chem, 2014)
Values after ≈ are worked out from the molar mass of the structure shown. Active and inactive are the calls of the source. The calls are words filed in the database; no cut-off is given here.

Experiments:
[1] = tested on: HepG2; assay: Induction of apoptosis in human HepG2 cells assessed as increase of Bax protein expression at IC50 after 48 hrs by Western blotting; format: functional, cell-based
[2] = tested on: HepG2; assay: Induction of apoptosis in human HepG2 cells assessed as necrotic cells at IC50 after 48 hrs using Annexin-V-FITC staining by flow cytometer analysis (reference value: 1.5%); format: functional
[3] = tested on: HepG2; assay: Cytotoxicity against human HepG2 cells after 48 hrs by MTT assay; format: functional, cell-based; details: HepG2, 48 h
[4] = tested on: HepG2; assay: Induction of apoptosis in human HepG2 cells assessed as early apoptotic cells at IC50 after 48 hrs using Annexin-V-FITC staining by flow cytometer analysis (reference value: 0.6%); format: functional
[5] = tested on: HepG2; assay: Induction of apoptosis in human HepG2 cells assessed as decrease of Bcl2 protein expression at IC50 after 48 hrs by Western blotting; format: functional, cell-based
[6] = Cytotoxicity against rat IEC-6 cells assessed as cell viability up to 100 uM after 24 to 48 hrs by MTT assay; format: cell-based
[7] = tested on: HepG2; assay: Induction of apoptosis in human HepG2 cells assessed as increase of cleaved caspase 3/9 level at IC50 after 48 hrs by Western blotting; format: functional, cell-based
[8] = tested on: HepG2; assay: Induction of apoptosis in human HepG2 cells assessed as late apoptotic cells at IC50 after 48 hrs using Annexin-V-FITC staining by flow cytometer analysis (reference value: 0.5%); format: functional
[9] = tested on: HepG2; assay: Induction of apoptosis in human HepG2 cells assessed as viable cells at IC50 after 48 hrs using Annexin-V-FITC staining by flow cytometer analysis (reference value: 97.3%); format: functional
[10] = tested on: HepG2; assay: Induction of apoptosis in human HepG2 cells assessed as increase of cleaved PARP level at IC50 after 48 hrs by Western blotting; format: functional, cell-based
[11] = tested on: HepG2; assay: Induction of apoptosis in human HepG2 cells assessed as increase of p53 and p21 protein expression at IC50 after 48 hrs by Western blotting; format: functional, cell-based
[12] = tested on: HepG2; assay: Induction of apoptosis in human HepG2 cells assessed as increase of cytochrome-c relase at IC50 after 48 hrs by Western blotting; format: functional, cell-based
[13] = tested on: HepG2; assay: Cytotoxicity against human HepG2 cells after 24 to 48 hrs by MTT assay; format: functional, cell-based
[14] = tested on: HepG2; assay: Cytotoxicity against human HepG2 cells; format: functional
[15] = tested on: HeLa; assay: Cytotoxicity against human HeLa cells; format: functional
[16] = tested on: HepG2; assay: Cytotoxicity against human HepG2 cells up to 100 uM after 24 to 48 hrs by MTT assay; format: functional, cell-based
[17] = tested on: COLO 205; assay: Induction of apoptosis in human COLO205 cells assessed as increase of p53 protein expression at IC50 after 48 hrs by Western blotting; format: functional, cell-based
[18] = tested on: COLO 205; assay: Induction of apoptosis in human COLO205 cells assessed as decrease of Bcl2 protein expression at IC50 after 48 hrs by Western blotting; format: functional, cell-based
[19] = tested on: COLO 205; assay: Induction of apoptosis in human COLO205 cells assessed as early apoptotic cells at IC50 after 24 hrs using Annexin-V-FITC staining by flow cytometer analysis (reference value: 0.07%); format: functional
[20] = tested on: COLO 205; assay: Cytotoxicity against human COLO205 cells after 48 hrs by MTT assay; format: functional, cell-based; details: for IC50: COLO 205, 48 h
[21] = tested on: COLO 205; assay: Induction of apoptosis in human COLO205 cells assessed as increase of cytochrome-c relase at IC50 after 48 hrs by Western blotting; format: functional, cell-based
[22] = tested on: COLO 205; assay: Induction of apoptosis in human COLO205 cells assessed as activation of caspase-9 at IC50 after 48 hrs by Western blotting; format: functional, cell-based
[23] = tested on: COLO 205; assay: Induction of apoptosis in human COLO205 cells assessed as viable cells at IC50 after 24 hrs using Annexin-V-FITC staining by flow cytometer analysis (reference value: 75.5%); format: functional
[24] = tested on: COLO 205; assay: Induction of apoptosis in human COLO205 cells assessed as activation of caspase-8 at IC50 after 48 hrs by Western blotting; format: functional, cell-based
[25] = tested on: COLO 205; assay: Induction of apoptosis in human COLO205 cells assessed as necrotic cells at IC50 after 48 hrs using Annexin-V-FITC staining by flow cytometer analysis (reference value: 0.5%); format: functional
[26] = tested on: COLO 205; assay: Induction of apoptosis in human COLO205 cells assessed as increase of Bax protein expression at IC50 after 48 hrs by Western blotting; format: functional, cell-based
[27] = tested on: COLO 205; assay: Cytotoxicity against human COLO205 cells after 24 hrs by MTT assay; format: functional, cell-based
[28] = tested on: COLO 205; assay: Induction of apoptosis in human COLO205 cells assessed as late apoptotic cells at IC50 after 48 hrs using Annexin-V-FITC staining by flow cytometer analysis (reference value: 6.5%); format: functional
[29] = tested on: COLO 205; assay: Induction of apoptosis in human COLO205 cells assessed as late apoptotic cells at IC50 after 24 hrs using Annexin-V-FITC staining by flow cytometer analysis (reference value: 0.07%); format: functional
[30] = tested on: COLO 205; assay: Induction of apoptosis in human COLO205 cells assessed as early apoptotic cells at IC50 after 48 hrs using Annexin-V-FITC staining by flow cytometer analysis (reference value: 0.3%); format: functional
[31] = tested on: COLO 205; assay: Induction of apoptosis in human COLO205 cells assessed as cleaved PARP level at IC50 after 48 hrs by Western blotting; format: functional, cell-based
[32] = tested on: COLO 205; assay: Induction of apoptosis in human COLO205 cells assessed as cleaved procaspase-3 level at IC50 after 48 hrs by Western blotting; format: functional, cell-based
[33] = tested on: COLO 205; assay: Induction of apoptosis in human COLO205 cells assessed as increase of p21 protein expression at IC50 after 48 hrs by Western blotting; format: functional, cell-based
[34] = tested on: COLO 205; assay: Induction of apoptosis in human COLO205 cells assessed as viable cells at IC50 after 48 hrs using Annexin-V-FITC staining by flow cytometer analysis (reference value: 65.8%); format: functional
[35] = tested on: COLO 205; assay: Induction of apoptosis in human COLO205 cells assessed as necrotic cells at IC50 after 24 hrs using Annexin-V-FITC staining by flow cytometer analysis relative to control; format: functional

Compound	Activity [6]	Activity [16]	Activity [17]	Activity [18]	Activity [19] [%]	Activity [20]	IC50 [20] [µM]	Activity [21]	Activity [22]	Activity [23] [%]	Activity [24]	Activity [25] [%]	Activity [26]	Activity [27]	Activity [28] [%]	Activity [29] [%]	Activity [30] [%]	Activity [31]	Activity [32]	Activity [33]	also measured
Nc1n[nH]c2c1C(=O)NN=C1c3ccccc3OCCC12 (centres undefined)	Non-toxic																				Activity [1]: Active; Activity [2]: 6.7%; IC50 [3]: 60 µM; Activity [4]: 11.2%; Activity [5]: Active; Activity [7]: Active; Activity [8]: 7.6%; Activity [9]: 74.5%; Activity [10]: Active; Activity [11]: Active; Activity [12]: Active; Activity [13]: Dose-dependent effect
CC(=O)c1c(O)c2ccc3ccccc3c2oc1=O																					CC50 [14]: 6.87 µg/mL (≈ 27 µM); CC50 [15]: 6.87 µg/mL (≈ 27 µM)
Nc1n[nH]c2c3c(oc(=O)c12)-c1ccccc1SC3	Non-toxic	inactive																			
Nc1n[nH]c2c3c(oc(=O)c12)-c1ccc2ccccc2c1OCC3	Non-toxic		inactive	Active	5.5	Dose-dependent effect	20	Active	Active	54.7	inactive	7	Active	inactive	8.6	7.5	0.2	Active	Active	Active	Activity [34]: 50.7%; Activity [35]: 1.7%
Cc1cc2c(cc1C)-c1oc(=O)c3c(N)n[nH]c3c1CCO2	Non-toxic	inactive	inactive	Active	9.4	Dose-dependent effect	60	Active	Active	50.6	inactive	7.5	Active	inactive	4	4.3	0.1	Active	Active	Active	Activity [34]: 63.5%; Activity [35]: 0.7%
Nc1n[nH]c2c3c(oc(=O)c12)-c1cc(Cl)ccc1SC3	Non-toxic	inactive																			
COc1ccc2c(c1)-c1oc(=O)c3c(N)n[nH]c3c1CCO2	Non-toxic	inactive	inactive	Active	16.7	Dose-dependent effect	40	Active	Active	33.6	inactive	3	Active	inactive	7.7	9	0.3	Active	Active	Active	Activity [34]: 49.3%; Activity [35]: 0.2%
Nc1n[nH]c2c1C(=O)NN=C1c3cc(Cl)ccc3SCC12 (centres undefined)	Non-toxic	inactive																			
Nc1n[nH]c2c3c(oc(=O)c12)-c1ccccc1OCC3	Non-toxic																				Activity [1]: Active; Activity [2]: 4.6%; IC50 [3]: 80 µM; Activity [4]: 15.8%; Activity [5]: Active; Activity [7]: Active; Activity [8]: 9.2%; Activity [9]: 70.4%; Activity [10]: Active; Activity [11]: Active; Activity [12]: Active; Activity [13]: Dose-dependent effect
